In ChEMBL document CHEMBL5500349, “Discovery of ganoderic acid A (GAA) PROTACs as MDM2 protein degraders for the treatment of breast cancer” (Eur J Med Chem, 2024):
Active and inactive are the calls of the source. The calls are words filed in the database; no cut-off is given here.

What was measured:
[1] = tested on: MDA-MB-231; experiment: Antiproliferative activity against human MDA-MB-231 cells assessed as cell viability at 100 uM incubated for 48 to 72 hrs by MTT assay; assay type: functional; conditions: time 48-72 hrs, read-out: Activity
[2] = tested on: HepG2; experiment: Antiproliferative activity against human HepG2 cells assessed as cell viability at 100 uM incubated for 48 to 72 hrs by MTT assay; assay type: functional; conditions: time 48-72 hrs, read-out: Activity
[3] = tested on: SJSA-1; experiment: Antiproliferative activity against human SJSA-1 cells assessed as cell viability at 100 uM incubated for 48 to 72 hrs by MTT assay; assay type: functional; conditions: time 48-72 hrs, read-out: Activity
[4] = tested on: MCF7; experiment: Antiproliferative activity against human MCF7 cells assessed as cell viability at 100 uM incubated for 48 to 72 hrs by MTT assay; assay type: functional; conditions: time 48-72 hrs, read-out: Activity
[5] = Cytotoxicity against mouse HT-22 cells assessed as cell viability at 100 uM incubated for 48 to 72 hrs by MTT assay; assay type: toxicity, cell-based; conditions: time 48-72 hrs, read-out: Activity
[6] = target: T1, von Hippel-Lindau disease tumor suppressor/E3 ubiquitin-protein ligase Mdm2 (Homo sapiens, UniProt Q00987+P40337); experiment: Protac activity at VHL/MDM2 in human MCF7 cells assessed as reduction in MDM2 protein level at 100 uM after 48 hrs by Western blotting analysis; assay type: cell-based
T1 sequence (P40337 whole entry, looked up): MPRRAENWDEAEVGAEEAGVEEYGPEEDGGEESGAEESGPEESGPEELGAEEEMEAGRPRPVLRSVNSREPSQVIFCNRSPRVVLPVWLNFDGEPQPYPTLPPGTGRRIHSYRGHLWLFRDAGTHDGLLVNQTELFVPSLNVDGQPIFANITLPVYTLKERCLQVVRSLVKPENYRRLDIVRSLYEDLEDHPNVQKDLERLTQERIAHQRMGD
T1 sequence (Q00987 whole entry, looked up): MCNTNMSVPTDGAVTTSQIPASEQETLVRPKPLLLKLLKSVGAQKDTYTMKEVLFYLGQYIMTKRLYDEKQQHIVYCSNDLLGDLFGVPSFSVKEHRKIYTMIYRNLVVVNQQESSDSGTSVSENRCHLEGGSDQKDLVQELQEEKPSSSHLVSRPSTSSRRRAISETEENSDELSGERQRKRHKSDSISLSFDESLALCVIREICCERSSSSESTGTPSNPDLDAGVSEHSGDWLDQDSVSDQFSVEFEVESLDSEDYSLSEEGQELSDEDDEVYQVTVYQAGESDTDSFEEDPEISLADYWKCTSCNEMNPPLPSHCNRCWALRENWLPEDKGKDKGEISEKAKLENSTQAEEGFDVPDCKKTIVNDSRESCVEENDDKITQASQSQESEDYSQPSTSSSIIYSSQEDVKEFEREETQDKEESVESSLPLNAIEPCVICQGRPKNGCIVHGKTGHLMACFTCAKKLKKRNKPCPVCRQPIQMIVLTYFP

[7] = target: T1, von Hippel-Lindau disease tumor suppressor/E3 ubiquitin-protein ligase Mdm2; experiment: Protac activity at VHL/MDM2 in human MDA-MB-231 cells assessed as reduction in MDM2 protein level at 80 uM after 48 hrs by Western blotting analysis; assay type: cell-based

SMILES	viability at 100 µM [1] [%]	viability at 100 µM [2] [%]	viability at 100 µM [3] [%]	viability at 100 µM [4] [%]	viability at 100 µM [5] [%]	Activity [6]	Activity [7]
COc1cccc2c1C(=O)c1c(O)c3c(c(O)c1C2=O)C[C@@](O)(C(=O)CO)C[C@@H]3O[C@H]1C[C@H](N)[C@H](O)[C@H](C)O1 [DOXORUBICIN]	39.4	64.3	56.2	57.5	–	–	–
Cc1ncsc1-c1ccc([C@H](C)NC(=O)[C@@H]2C[C@@H](O)CN2C(=O)[C@@H](NC(=O)CCCc2cn(CCCNC(=O)[C@H](C)CC(=O)C[C@@H](C)[C@H]3C[C@H](O)[C@@]4(C)C5=C(C(=O)C[C@]34C)[C@@]3(C)CCC(=O)C(C)(C)[C@@H]3C[C@@H]5O)nn2)C(C)(C)C)cc1	99.1	90.1	81.5	87	89.1	–	–
Cc1ncsc1-c1ccc([C@H](C)NC(=O)[C@@H]2C[C@@H](O)CN2C(=O)[C@@H](NC(=O)CCCc2cn(CCOCCOCCOCCNC(=O)[C@H](C)CC(=O)C[C@@H](C)[C@H]3C[C@H](O)[C@@]4(C)C5=C(C(=O)C[C@]34C)[C@@]3(C)CCC(=O)C(C)(C)[C@@H]3C[C@@H]5O)nn2)C(C)(C)C)cc1	25.5	89.2	61.8	42.7	90.2	–	–
C[C@H](CC(=O)C[C@@H](C)[C@H]1C[C@H](O)[C@@]2(C)C3=C(C(=O)C[C@]12C)[C@@]1(C)CCC(=O)C(C)(C)[C@@H]1C[C@@H]3O)C(=O)NCc1cn(CCOCCOCCOCCOCCNc2cccc3c2C(=O)N(C2CCC(=O)NC2=O)C3=O)nn1 (some centres not stated)	57.9	125	95.9	57.2	98.3	–	–
C[C@H](CC(=O)C[C@@H](C)[C@H]1C[C@H](O)[C@@]2(C)C3=C(C(=O)C[C@]12C)[C@@]1(C)CCC(=O)C(C)(C)[C@@H]1C[C@@H]3O)C(=O)NCc1cn(CCOCCNc2cccc3c2C(=O)N(C2CCC(=O)NC2=O)C3=O)nn1 (some centres not stated)	48.6	85.8	88.2	60.7	83.2	–	–
Cc1ncsc1-c1ccc([C@H](C)NC(=O)[C@@H]2C[C@@H](O)CN2C(=O)[C@@H](NC(=O)CCCc2cn(CCOCCOCCOCCOCCNC(=O)[C@H](C)CC(=O)C[C@@H](C)[C@H]3C[C@H](O)[C@@]4(C)C5=C(C(=O)C[C@]34C)[C@@]3(C)CCC(=O)C(C)(C)[C@@H]3C[C@@H]5O)nn2)C(C)(C)C)cc1	28.7	94.8	61.7	30.1	96.9	–	–
C[C@H](CC(=O)C[C@@H](C)[C@H]1C[C@H](O)[C@@]2(C)C3=C(C(=O)C[C@]12C)[C@@]1(C)CCC(=O)C(C)(C)[C@@H]1C[C@@H]3O)C(=O)NCCOCCOCCn1cc(CNc2cccc3c2C(=O)N(C2CCC(=O)NC2=O)C3=O)nn1 (some centres not stated)	71.6	105	85.9	76.8	98.7	–	–
C[C@H](CC(=O)C[C@@H](C)[C@H]1C[C@H](O)[C@@]2(C)C3=C(C(=O)C[C@]12C)[C@@]1(C)CCC(=O)C(C)(C)[C@@H]1C[C@@H]3O)C(=O)NCCCn1cc(CNc2cccc3c2C(=O)N(C2CCC(=O)NC2=O)C3=O)nn1 (some centres not stated)	56.2	116	75.7	70.5	94.9	–	–
C[C@H](CC(=O)C[C@@H](C)[C@H]1C[C@H](O)[C@@]2(C)C3=C(C(=O)C[C@]12C)[C@@]1(C)CCC(=O)C(C)(C)[C@@H]1C[C@@H]3O)C(=O)NCc1cn(CCCNc2cccc3c2C(=O)N(C2CCC(=O)NC2=O)C3=O)nn1 (some centres not stated)	73.8	58.4	79.6	65.9	96.7	–	–
C[C@H](CC(=O)C[C@@H](C)[C@H]1C[C@H](O)[C@@]2(C)C3=C(C(=O)C[C@]12C)[C@@]1(C)CCC(=O)C(C)(C)[C@@H]1C[C@@H]3O)C(=O)NCc1cn(CCOCCOCCNc2cccc3c2C(=O)N(C2CCC(=O)NC2=O)C3=O)nn1 (some centres not stated)	63.1	88.8	60.6	71.2	78.2	–	–
C[C@H](CC(=O)C[C@@H](C)[C@H]1C[C@H](O)[C@@]2(C)C3=C(C(=O)C[C@]12C)[C@@]1(C)CCC(=O)C(C)(C)[C@@H]1C[C@@H]3O)C(=O)NCc1cn(CCOCCOCCOCCNc2cccc3c2C(=O)N(C2CCC(=O)NC2=O)C3=O)nn1 (some centres not stated)	74.7	91	67	83.4	78.2	–	–
C[C@H](CC(=O)C[C@@H](C)[C@H]1C[C@H](O)[C@@]2(C)C3=C(C(=O)C[C@]12C)[C@@]1(C)CCC(=O)C(C)(C)[C@@H]1C[C@@H]3O)C(=O)O [GANODERIC ACID A]	84.8	87.2	98.9	84.7	–	inactive	inactive
Cc1ncsc1-c1ccc([C@H](C)NC(=O)[C@@H]2C[C@@H](O)CN2C(=O)[C@@H](NC(=O)CCCc2cn(CCOCCOCCNC(=O)[C@H](C)CC(=O)C[C@@H](C)[C@H]3C[C@H](O)[C@@]4(C)C5=C(C(=O)C[C@]34C)[C@@]3(C)CCC(=O)C(C)(C)[C@@H]3C[C@@H]5O)nn2)C(C)(C)C)cc1	37.7	84.6	74.1	40.8	101	–	–
C[C@H](CC(=O)C[C@@H](C)[C@H]1C[C@H](O)[C@@]2(C)C3=C(C(=O)C[C@]12C)[C@@]1(C)CCC(=O)C(C)(C)[C@@H]1C[C@@H]3O)C(=O)NCCOCCOCCOCCOCCn1cc(CNc2cccc3c2C(=O)N(C2CCC(=O)NC2=O)C3=O)nn1 (some centres not stated)	90.2	130	83	75.9	91.9	–	–
Cc1ncsc1-c1ccc([C@H](C)NC(=O)[C@@H]2C[C@@H](O)CN2C(=O)[C@@H](NC(=O)CCCCc2cn(CCOCCOCCNC(=O)[C@H](C)CC(=O)C[C@@H](C)[C@H]3C[C@H](O)[C@@]4(C)C5=C(C(=O)C[C@]34C)[C@@]3(C)CCC(=O)C(C)(C)[C@@H]3C[C@@H]5O)nn2)C(C)(C)C)cc1	31.6	86.8	77.1	41.4	95.9	–	–
CC(=O)N[C@H](C(=O)N1C[C@H](O)C[C@H]1C(=O)N[C@@H](C)c1ccc(-c2scnc2C)cc1)C(C)(C)C	–	–	–	–	–	inactive	inactive
C[C@H](CC(=O)C[C@@H](C)[C@H]1C[C@H](O)[C@@]2(C)C3=C(C(=O)C[C@]12C)[C@@]1(C)CCC(=O)C(C)(C)[C@@H]1C[C@@H]3O)C(=O)NCCOCCn1cc(CNc2cccc3c2C(=O)N(C2CCC(=O)NC2=O)C3=O)nn1 (some centres not stated)	73.1	110	92.2	81.8	99.2	–	–
Cc1ncsc1-c1ccc([C@H](C)NC(=O)[C@@H]2C[C@@H](O)CN2C(=O)[C@@H](NC(=O)CCCCc2cn(CCCNC(=O)[C@H](C)CC(=O)C[C@@H](C)[C@H]3C[C@H](O)[C@@]4(C)C5=C(C(=O)C[C@]34C)[C@@]3(C)CCC(=O)C(C)(C)[C@@H]3C[C@@H]5O)nn2)C(C)(C)C)cc1	97.5	96.5	84.6	57.9	102	–	–
C[C@H](CC(=O)C[C@@H](C)[C@H]1C[C@H](O)[C@@]2(C)C3=C(C(=O)C[C@]12C)[C@@]1(C)CCC(=O)C(C)(C)[C@@H]1C[C@@H]3O)C(=O)NCCOCCOCCOCCn1cc(CNc2cccc3c2C(=O)N(C2CCC(=O)NC2=O)C3=O)nn1 (some centres not stated)	69.7	81.3	83.4	65.5	97.2	–	–
Cc1ncsc1-c1ccc([C@H](C)NC(=O)[C@@H]2C[C@@H](O)CN2C(=O)[C@@H](NC(=O)CCCCc2cn(CCOCCNC(=O)[C@H](C)CC(=O)C[C@@H](C)[C@H]3C[C@H](O)[C@@]4(C)C5=C(C(=O)C[C@]34C)[C@@]3(C)CCC(=O)C(C)(C)[C@@H]3C[C@@H]5O)nn2)C(C)(C)C)cc1	70.8	94	88.2	81.9	97	–	–
Cc1ncsc1-c1ccc([C@H](C)NC(=O)[C@@H]2C[C@@H](O)CN2C(=O)[C@@H](NC(=O)CCCc2cn(CCOCCNC(=O)[C@H](C)CC(=O)C[C@@H](C)[C@H]3C[C@H](O)[C@@]4(C)C5=C(C(=O)C[C@]34C)[C@@]3(C)CCC(=O)C(C)(C)[C@@H]3C[C@@H]5O)nn2)C(C)(C)C)cc1	41.8	105	58.4	66.9	97	–	–
